# Laboratory results reported in patent US4831051A, “Aromatic derivatives comprising an aminoalkoxy chain, the salts thereof, the process for preparing these derivatives and salts and the application thereof in therapeutics” (Delande S.A., priority 1981, dated 1989).
# Assay: acute toxicity estimated on mice (method of MILLER and TAINTER)
# Settings: mouse, in vivo, iv
row,Structure (SMILES),LD50 [mg/kg]
1,COc1ccc(OC)c(C(=O)CCc2ccc(O)cc2)c1OCCN1CCCCC1 [compound 2],14
2,COc1ccc(OC)c(C(O)CCc2ccccc2)c1OCCN1CCCCC1 (stereo not shown) [compound 3],16
3,COc1ccc(OC)c(C(O)CCc2ccc(F)cc2)c1OCCN1CCCCC1 (stereo not shown) [compound 4],31
4,COc1ccc(OC)c(C(O)CCc2ccc(Cl)cc2)c1OCCN1CCCCC1 (stereo not shown) [compound 5],33
5,COc1ccc(OC)c(C(O)CCc2ccc(C)cc2)c1OCCN1CCCCC1 (stereo not shown) [compound 6],31
6,COc1ccc(CCC(O)c2c(OC)ccc(OC)c2OCCN2CCCCC2)cc1 (stereo not shown) [compound 7],27
7,COc1ccc(OC)c(C(O)CCc2ccccc2O)c1OCCN1CCCCC1 (stereo not shown) [compound 8],12
8,COc1ccc(OC)c(C(O)CCc2cccc(O)c2)c1OCCN1CCCCC1 (stereo not shown) [compound 9],11
9,COc1ccc(OC)c(C(O)CCc2ccc(O)cc2)c1OCCN1CCCCC1 (stereo not shown) [compound 10],20
10,COc1ccc(OC)c(C(O)CCc2ccc(O)cc2)c1OCCCN1CCCCC1 (stereo not shown) [compound 11],22
11,CCN(CC)CCOc1c(OC)ccc(OC)c1C(O)CCc1ccc(O)cc1 (stereo not shown) [compound 12],23
12,COc1ccc(OC)c(C(O)CCc2ccc(O)cc2)c1OCCN1CCCC1 (stereo not shown) [compound 13],27
13,COc1cc(OC)c(C(O)CCc2ccc(O)cc2)c(OCCN2CCCCC2)c1OC (stereo not shown) [compound 14],33
14,COc1cc(OC)c(CCCc2ccc(O)cc2)c(OCCN2CCCCC2)c1 [compound 60],8.9
15,CCCN(CCC)CCOc1c(OC)ccc(OC)c1C(O)CCc1ccc(O)cc1 (stereo not shown) [compound 62],13
16,COc1c2c(c(OC)c(C(O)CCc3ccc(O)cc3)c1OCCN1CCCCC1)OCCO2 (stereo not shown) [compound 66],15.7
17,COc1c(OC)c(OC)c(C(O)CCc2ccc(O)cc2)c(OCCN2CCCCC2)c1OC (stereo not shown) [compound 67],32.5
18,"COc1c(OCCN2CCCCC2)c(C(O)CCc2ccc(O)cc2)c(OC)c2ccccc12 (stereo not shown) [compound 68, 3-parahydroxyphenyl 1-[3-(2-piperidino)ethoxy 1,4-dimethoxynaphtalenyl-2]propanol-1, hydrated]",12.3
19,COc1cc(Cl)c(OC)c(OCCN2CCCCC2)c1C(O)CCc1ccc(O)cc1 (stereo not shown) [compound 69],8.6
20,CCN(CC)CCOc1c(OC)c(Cl)cc(OC)c1C(O)CCc1ccc(O)cc1 (stereo not shown) [compound 70],14
21,COc1cc(Cl)c(OC)c(OCCN(C(C)C)C(C)C)c1C(O)CCc1ccc(O)cc1 (stereo not shown) [compound 71],11.5
22,COc1cc(F)c(OC)c(OCCN2CCCCC2)c1C(O)CCc1ccc(O)cc1 (stereo not shown) [compound 72],3.4
23,COc1cc(Cl)c(OC)c(C(O)CCc2ccc(O)cc2)c1OCCN1CCCCC1 (stereo not shown) [compound 73],11.7
24,COc1cc([N+](=O)[O-])c(OC)c(C(O)CCc2ccc(O)cc2)c1OCCN1CCCCC1 (stereo not shown) [compound 74],18.6
25,CC(C)(Cc1ccc(O)cc1)C(O)c1ccccc1OCCN1CCCCC1 (stereo not shown) [compound 77],43
